Laboratory results taken from paper PMC7343802, “The development of the dog heartworm is highly sensitive to sterols which activate the orthologue of the nuclear receptor DAF-12” (Scientific Reports, 2020).
pEC50: −log10 of the molar value.

Legend:
D. immitis iL3 larvae = assay: in vitro molting of infective third-stage larvae (iL3) into L4; assay type: cell-based, Dirofilaria immitis
CelDAF-12 = CelDAF-12 (Caenorhabditis elegans, UniProt G5EFF5); assay: cell-based
Chain of CelDAF-12 (G5EFF5 516-753): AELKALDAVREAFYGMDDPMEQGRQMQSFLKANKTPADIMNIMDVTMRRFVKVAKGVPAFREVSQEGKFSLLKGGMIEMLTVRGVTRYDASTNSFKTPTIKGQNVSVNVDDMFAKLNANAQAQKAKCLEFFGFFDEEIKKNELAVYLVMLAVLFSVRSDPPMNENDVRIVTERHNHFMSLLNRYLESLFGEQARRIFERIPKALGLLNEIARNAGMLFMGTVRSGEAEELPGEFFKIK

CC(CCCC(C)C1CCC2C3=CCC4CC(=O)CCC4(C)C3CCC21C)C(=O)O [Δ7-DA, (25S)-Δ7-dafachronic acid]
number of free cuticles (completed molt, L4) versus DMSO control (D. immitis iL3 larvae): significantly higher
start of the molting process (day in culture) (D. immitis iL3 larvae): 3 to 4 days
overall effect on molting of iL3 into L4 (D. immitis iL3 larvae; 10 µM): induced a rapid development of iL3 into L4
percentage of iL3 which had initiated but not completed the molt, compared to DMSO control (D. immitis iL3 larvae; 10 µM, day 5 or 6): low percentage
pEC50 (CelDAF-12): 7.80
